pIC50: −log10 of the molar value. Active and inactive are the calls of the source. No cut-off for these calls is given here. Bounds are passed on as bounds.

One test concerns the target Histone deacetylase 1 (Homo sapiens, UniProt Q13547). In words: Inhibition of full-length recombinant human C-terminal GST tagged HDAC1 expressed in Sf9 insect cells using aminoluciferin peptide substrate preincubated for 3 hrs followed by substrate addition and measured after 30 mins by HDAC-Glo I/II chemiluminescence assay.
The target of the next test is T1, Histone deacetylase 8 (Homo sapiens, UniProt Q9BY41).
T1 sequence (Q9BY41 whole entry): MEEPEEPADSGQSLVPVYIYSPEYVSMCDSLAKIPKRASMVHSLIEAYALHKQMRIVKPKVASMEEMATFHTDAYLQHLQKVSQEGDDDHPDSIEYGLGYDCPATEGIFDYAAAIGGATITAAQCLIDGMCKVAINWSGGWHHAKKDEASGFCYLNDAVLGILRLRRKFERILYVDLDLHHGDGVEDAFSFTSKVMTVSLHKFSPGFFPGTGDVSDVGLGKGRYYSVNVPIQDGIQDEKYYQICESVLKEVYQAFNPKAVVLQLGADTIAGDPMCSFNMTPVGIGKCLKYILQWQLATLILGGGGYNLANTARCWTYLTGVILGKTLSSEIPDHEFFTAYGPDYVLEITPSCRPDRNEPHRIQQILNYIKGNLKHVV
Nature of the test: Inhibition of full-length recombinant human C-terminal His-tagged HDAC8 expressed in Sf9 insect cells using aminoluciferin peptide substrate preincubated for 3 hrs followed by substrate addition and measured after 30 mins by HDAC-Glo I/II chemiluminescence assay.

The target of test [1] is Histone deacetylase 5 (Homo sapiens) (UniProt Q9UQL6). Nature of the test: Inhibition of recombinant human HDAC5 using fluorogenic substrate preincubated for 3 hrs followed by substrate addition and measured after 30 mins by fluorescence analysis. Particulars: time 3.5 hrs.
Sequence of Histone deacetylase 5 (Homo sapiens) (Q9UQL6 whole entry): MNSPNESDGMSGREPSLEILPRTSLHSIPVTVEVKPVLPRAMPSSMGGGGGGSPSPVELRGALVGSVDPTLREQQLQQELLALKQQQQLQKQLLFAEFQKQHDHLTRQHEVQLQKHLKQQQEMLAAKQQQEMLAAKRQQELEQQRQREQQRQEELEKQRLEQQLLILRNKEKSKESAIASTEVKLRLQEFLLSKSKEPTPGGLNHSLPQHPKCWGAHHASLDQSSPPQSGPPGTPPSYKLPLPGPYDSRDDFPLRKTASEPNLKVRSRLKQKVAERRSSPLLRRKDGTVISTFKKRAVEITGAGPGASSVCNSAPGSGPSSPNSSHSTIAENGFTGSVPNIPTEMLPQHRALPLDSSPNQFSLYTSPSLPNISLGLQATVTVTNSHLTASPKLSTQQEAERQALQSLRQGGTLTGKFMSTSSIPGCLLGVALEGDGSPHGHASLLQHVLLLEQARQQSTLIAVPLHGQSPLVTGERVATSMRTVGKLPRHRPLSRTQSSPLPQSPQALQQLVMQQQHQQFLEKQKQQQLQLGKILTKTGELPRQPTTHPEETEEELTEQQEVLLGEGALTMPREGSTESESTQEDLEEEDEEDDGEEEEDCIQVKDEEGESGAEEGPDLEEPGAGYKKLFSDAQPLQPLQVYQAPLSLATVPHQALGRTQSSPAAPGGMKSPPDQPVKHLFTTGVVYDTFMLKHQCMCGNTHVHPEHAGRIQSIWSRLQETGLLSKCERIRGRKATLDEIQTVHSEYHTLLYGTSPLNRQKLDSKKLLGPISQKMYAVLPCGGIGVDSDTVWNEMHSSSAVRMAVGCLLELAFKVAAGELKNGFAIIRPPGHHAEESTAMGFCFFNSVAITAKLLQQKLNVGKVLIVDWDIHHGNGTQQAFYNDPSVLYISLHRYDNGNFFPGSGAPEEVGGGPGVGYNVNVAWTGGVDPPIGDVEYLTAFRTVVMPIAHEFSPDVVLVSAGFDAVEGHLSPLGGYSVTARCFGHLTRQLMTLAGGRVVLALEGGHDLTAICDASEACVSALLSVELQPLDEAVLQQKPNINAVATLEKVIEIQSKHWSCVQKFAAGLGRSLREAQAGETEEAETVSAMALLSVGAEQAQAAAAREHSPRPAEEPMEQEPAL
Test [2] concerns the target T2, Protein deacetylase HDAC6 (Homo sapiens) (UniProt Q9UBN7).
T2 sequence (whole entry): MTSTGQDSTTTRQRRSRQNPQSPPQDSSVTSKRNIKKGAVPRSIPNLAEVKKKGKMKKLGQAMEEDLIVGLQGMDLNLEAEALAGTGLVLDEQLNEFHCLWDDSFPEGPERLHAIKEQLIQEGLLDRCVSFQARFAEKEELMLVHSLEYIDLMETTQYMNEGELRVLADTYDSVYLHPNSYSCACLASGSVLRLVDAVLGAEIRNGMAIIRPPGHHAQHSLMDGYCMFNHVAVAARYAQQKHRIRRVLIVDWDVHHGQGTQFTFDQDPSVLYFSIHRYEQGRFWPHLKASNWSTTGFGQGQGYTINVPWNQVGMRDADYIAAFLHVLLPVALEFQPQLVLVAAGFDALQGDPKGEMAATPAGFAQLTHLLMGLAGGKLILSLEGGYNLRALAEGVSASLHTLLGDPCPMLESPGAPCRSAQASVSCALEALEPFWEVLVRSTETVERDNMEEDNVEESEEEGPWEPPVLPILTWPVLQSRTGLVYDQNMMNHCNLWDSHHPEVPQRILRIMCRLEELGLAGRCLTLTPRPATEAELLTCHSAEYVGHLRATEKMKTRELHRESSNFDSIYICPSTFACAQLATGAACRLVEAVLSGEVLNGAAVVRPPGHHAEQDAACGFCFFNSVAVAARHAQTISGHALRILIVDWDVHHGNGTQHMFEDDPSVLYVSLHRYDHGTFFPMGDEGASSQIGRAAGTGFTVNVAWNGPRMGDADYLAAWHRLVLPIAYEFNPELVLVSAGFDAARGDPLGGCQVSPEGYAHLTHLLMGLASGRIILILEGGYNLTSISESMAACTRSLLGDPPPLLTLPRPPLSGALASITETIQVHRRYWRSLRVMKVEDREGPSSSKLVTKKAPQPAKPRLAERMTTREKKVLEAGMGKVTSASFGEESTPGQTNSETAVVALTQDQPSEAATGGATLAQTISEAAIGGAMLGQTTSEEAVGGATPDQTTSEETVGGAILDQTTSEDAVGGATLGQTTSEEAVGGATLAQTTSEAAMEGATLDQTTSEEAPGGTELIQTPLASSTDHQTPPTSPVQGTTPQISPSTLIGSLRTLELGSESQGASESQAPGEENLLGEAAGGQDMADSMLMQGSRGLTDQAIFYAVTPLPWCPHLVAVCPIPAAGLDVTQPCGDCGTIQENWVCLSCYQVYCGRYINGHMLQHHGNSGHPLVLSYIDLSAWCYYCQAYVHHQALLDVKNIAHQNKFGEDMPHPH
In words: Inhibition of full-length recombinant human C-terminal GST tagged HDAC6 expressed in Sf9 insect cells using aminoluciferin peptide substrate preincubated for 3 hrs followed by substrate addition and measured after 30 mins by HDAC-Glo I/II chemiluminescence assay. Particulars: time 3.5 hrs.

For test [3], the target named is T3, Histone deacetylase 7 (Homo sapiens) (UniProt Q8WUI4).
T3 sequence (whole entry): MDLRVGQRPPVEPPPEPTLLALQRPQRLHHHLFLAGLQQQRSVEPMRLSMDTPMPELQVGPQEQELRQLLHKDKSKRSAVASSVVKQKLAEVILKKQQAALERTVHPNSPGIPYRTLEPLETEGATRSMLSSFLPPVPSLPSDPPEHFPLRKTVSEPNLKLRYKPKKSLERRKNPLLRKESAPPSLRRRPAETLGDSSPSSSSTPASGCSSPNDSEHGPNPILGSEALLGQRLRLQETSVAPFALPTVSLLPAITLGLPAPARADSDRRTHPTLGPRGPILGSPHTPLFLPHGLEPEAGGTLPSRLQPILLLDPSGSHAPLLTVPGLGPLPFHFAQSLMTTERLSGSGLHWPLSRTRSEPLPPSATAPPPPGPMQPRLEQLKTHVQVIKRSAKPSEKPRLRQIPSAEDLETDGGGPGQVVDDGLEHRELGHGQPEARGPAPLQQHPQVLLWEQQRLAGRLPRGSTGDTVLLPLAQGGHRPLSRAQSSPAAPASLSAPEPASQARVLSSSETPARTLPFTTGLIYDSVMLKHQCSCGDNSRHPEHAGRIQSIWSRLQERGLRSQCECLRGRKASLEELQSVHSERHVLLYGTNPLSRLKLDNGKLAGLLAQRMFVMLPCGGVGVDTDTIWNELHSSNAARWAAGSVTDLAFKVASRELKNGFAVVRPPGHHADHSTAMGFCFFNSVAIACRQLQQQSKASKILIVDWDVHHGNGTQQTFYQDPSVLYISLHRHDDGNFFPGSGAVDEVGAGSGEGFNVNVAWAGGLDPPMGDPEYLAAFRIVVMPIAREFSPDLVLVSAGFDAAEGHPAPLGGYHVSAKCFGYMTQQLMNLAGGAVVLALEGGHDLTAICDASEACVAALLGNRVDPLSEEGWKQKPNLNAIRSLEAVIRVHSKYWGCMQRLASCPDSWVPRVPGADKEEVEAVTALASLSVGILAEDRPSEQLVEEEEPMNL
Nature of the test: Inhibition of recombinant human HDAC7 using fluorogenic substrate preincubated for 3 hrs followed by substrate addition and measured after 30 mins by fluorescence analysis. Particulars: time 3.5 hrs.

The test system of test [4] is MCF7. Nature of the test: Downregulation of E2F7 gene expression in human MCF7 cells at 2 uM incubated for 24 hrs by microarray analysis. Format: functional, cell-based.
Test [5] concerns MCF7. Nature of the test: Downregulation of CCNE2 gene expression in human MCF7 cells at 2 uM incubated for 24 hrs by microarray analysis. It counts as functional, cell-based.

Sequence of Histone deacetylase 1 (Q13547 whole entry): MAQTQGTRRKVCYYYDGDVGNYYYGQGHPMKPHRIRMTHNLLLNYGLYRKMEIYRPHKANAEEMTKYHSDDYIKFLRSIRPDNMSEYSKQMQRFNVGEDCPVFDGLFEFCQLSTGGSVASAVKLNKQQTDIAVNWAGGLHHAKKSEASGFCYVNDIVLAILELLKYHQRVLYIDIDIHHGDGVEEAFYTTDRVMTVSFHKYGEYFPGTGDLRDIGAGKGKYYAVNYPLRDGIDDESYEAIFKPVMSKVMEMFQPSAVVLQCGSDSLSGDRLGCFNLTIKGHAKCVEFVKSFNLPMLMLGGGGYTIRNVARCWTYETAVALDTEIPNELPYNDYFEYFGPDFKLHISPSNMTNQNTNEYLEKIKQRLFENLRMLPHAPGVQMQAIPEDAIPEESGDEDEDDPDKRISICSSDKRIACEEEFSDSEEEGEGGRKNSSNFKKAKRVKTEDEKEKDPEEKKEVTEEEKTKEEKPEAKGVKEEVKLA

`Nc1ccc(-c2cccs2)cc1NC(=O)c1ccc(-c2cn(CCc3ccccn3)nn2)cc1`: the negative-log IC50 (pIC50) is 8.19 at Histone deacetylase 1 and less than 5.00 at Histone deacetylase 8. Also, the inhibition result in test [1], in test [2] and in test [3] was “inactive” each time. Further, the result in the test with MCF7 [4] and with MCF7 [5] was Active.

In the case of `Nc1ccc(-c2cccs2)cc1NC(=O)c1ccc(-c2cn(C[S+]([O-])c3ccccc3)nn2)cc1` (stereo unspecified), the negative-log IC50 (pIC50) at Histone deacetylase 1 was 8.09; on Histone deacetylase 8, 5.35. The inhibition result in test [1], in test [2] and in test [3] was “inactive” each time. Moreover, the outcome in the test on MCF7 [4] and in the test on MCF7 [5] was Active.

In the case of `Nc1ccc(-c2cccs2)cc1NC(=O)c1ccc(-c2cn(CS(=O)(=O)c3ccccc3)nn2)cc1`, the figures for the pIC50 on Histone deacetylase 1 and on Histone deacetylase 8 were 7.92 and less than 5.00, respectively. The inhibition result in test [1], in test [2] and in test [3] was “inactive” each time. For the same compound, the outcome with MCF7 [4] and in the test with MCF7 [5] was Active.

As usually defined, the pIC50 is −log10 of the IC50, conventionally taken in molar units.

The values above are taken from ChEMBL document CHEMBL5390237, “Discovery of Selective Histone Deacetylase 1 and 2 Inhibitors: Screening of a Focused Library Constructed by Click Chemistry, Kinetic Binding Analysis, and Biological Evaluation” (J Med Chem, 2023).
